Measurements reported in paper PMC2667962 (Biochemistry, 2008).

Legend:
[1] = Formation of anhydrous cholesterol crystals seen by DSC
[2] = DSC of the phase transition of pure SOPC with peptide; conditions: cooling scans, SOPC without peptide 5 °C

| Substance | formation of cholesterol crystals ([1]; 6/4 ratio of SOPC/cholesterol) | formation of cholesterol crystals ([1]; mixtures with 30% cholesterol) | transition temperature of pure SOPC ([2]; 5 mol% peptide) [°C] | transition temperature of pure SOPC ([2]; 10 mol% peptide) [°C] | transition temperature of pure SOPC ([2]; 15 mol% peptide) [°C] | formation of anhydrous cholesterol crystals ([1]; any of the SOPC/cholesterol ratios) |
| --- | --- | --- | --- | --- | --- | --- |
| Ac-GWGIK-NH2 [GWGIK, N-acetyl-GWGIK-amide] | no formation of cholesterol crystals | small peak corresponding to cholesterol crystals | – | – | – | – |
| LWGIG | – | – | 4.7 | 4.7 | 4.5 | no formation of anhydrous cholesterol crystals |
